The results in this text go back to patent US20250134928A1, “METHODS FOR IDENTIFYING AND USING ALLOGENEIC TUMOR INFILTRATING LYMPHOCYTES TO TREAT CANCER” (OBSIDIAN THERAPEUTICS, INC., priority 2022, published 2025).

Molecules are shown by their SMILES.

This test relates to regulated mbIL15 TILs. The test is described as follows: ACZ dose response of IL15 expression and signaling, phospho-flow cytometry. The class given is cell-based, human. The note with it: 18 hours, 0.1-100 μM ACZ. As to the method:
Pre-REP TILs were prepared similarly to the methods of Example 1-3 and 9, and unengineered and mbIL15 TIL generated accordingly as described in Examples 1-3 and 9. Engagement of the IL15 signaling pathway results in phosphorylation of signal transducers downstream, including the transcription factor protein STAT5 and ribosomal protein S6. […] Next, the regulated mbIL15 TILs were regulated for 18 hours in the presence of a range of concentrations of ACZ including 0.1, 1, 2.5, 5, 10, 25, 100 μM, as well as vehicle control. The regulated mbIL15 TILs were then collected for staining and FACS analysis.
Briefly, cells were stained using antibodies for CD3, CD4, CD8, IL15 and a Live/Dead marker. Then cells were fixed in 2% formaldehyde (BD Cytofix) and permeabilized using a methanol-based buffer (BD Phospho Perm III Buffer) before staining with antibodies specific for phosphorylated STAT5 (Biolegend) and S6 (Cell Signaling Technology). Cells were acquired on the BD Symphony and analyzed using FlowJo software.

Consider `CC(=O)Nc1nnc(S(N)(=O)=O)s1` [ACZ, acetazolamide], for which the “staining intensity of pSTAT5 and pS6” value is given as “increased with higher concentrations of ACZ”. The “ACZ concentration at which mbIL15 expression plateaus” value (four donors) lay within 10 to 25 µM.
